System: MOG35-55 EAE mouse model
Assay: External validation of MOG35-55 EAE at an independent contract laboratory
Format: in vivo
Details: 10 mg/kg, n=12 mice per group
Experimental: EAE was induced by immunizing 10-week-old C57BL/6 female mice with […] injection of […] complete Freund's adjuvant emulsion (Hooke Laboratories). One hour after immunization, mice were given 100 ng of pertussis toxin by 100 μl intraperitoneal injection. A second dose of pertussis toxin was administered the next day. EAE onset was monitored daily and scored using a clinical scale where 0 represented no abnormality; 1, limp tail; 2, limp tail and hind limb weakness; 3, hind limb paralysis; 4, hind limb paralysis and forelimb weakness; and 5, moribund. […] Once mice reached peak of disease ˜day 15; clinical score=3) they were randomized into treatment groups, and drug or vehicle (DMSO in saline) was administered intraperitoneally daily for 10 days (n=12-16 mice per group). […] Experimenters were blinded to the identity of the treatments and animals were scored daily. Cumulative disease scores for each animal were calculated during the treatment period, and a two-tailed t-test compared drug—with vehicle-treated groups. The extent of recovery for each animal was calculated as the difference between the peak disease score and the score at the end of each experiment, and a two-tailed t-test was used to compare each treatment with vehicle. […]

Clc1ccc(COC(Cn2ccnc2)c2ccc(Cl)cc2Cl)c(Cl)c1 (stereo not shown) [miconazole]
efficacy to reduce disease severity, independent validation: independently validated the preclinical efficacy

— patent publication US10653691B2, “Method of promoting remyelination” (Case Western Reserve University, priority 2013, dated 2020)
